Several values for one entry are separate records, joined by “and”; a condition that tells them apart may be missing. Equal entries are not always repeated. Entries after “also recorded” stand apart in the source; their conditions may differ.
Key:
[1] = in vivo; cited from earlier work
[2] = human, in vivo
schizophrenia patients = details: human, in vivo
[3] = human, in vivo; remark: listed apart in the source
[4] = human, in vivo; remark: listed apart in the source
[5] = design: species or system human; details: in vivo
[6] = system: bipolar disorder patients; details: in vivo; cited from earlier work

Row | Compound | effect on circulating proline [1] | fasting plasma proline, mean±SD [2] | β (95% CI), bivariate association of VPA treatment with total SANS score (schizophrenia patients) | β, SANS total score of Val/Val versus Val/Met and Met/Met patients (schizophrenia patients) | fasting plasma proline versus patients who did not receive VPA [3] | L-serine level [4] [µM] | fasting glycine level [4] [µM] | patients showing improvement in negative symptoms after treatment onset [5] | blood level considered the lower end of the therapeutic range [6] [µg/mL]
1 | CCO [Ethanol] | increases circulating proline levels | – | – | – | – | – | – | – | –
2 | CCCC(CCC)C(=O)O [VPA, 2-propylpentanoic acid] | upregulates circulating proline; also recorded: strong up-regulator of proline levels | 299.29±94.76 | −0.578 (−7.157, 6.001) | −12.17 | significantly higher | 117 | 361 | 2 out of 9 and 5 out of 7 and two and five | 50
